Laboratory results: patent US12655091B2, “N-benzyl-alpha-aminoamides as anaphase-promoting complex/cyclosome (APC/C) inhibitors” (CONSEJO SUPERIOR DE INVESTIGACIONES CIENTÍFICAS (CSIC), priority 2020, dated 2026)
Values joined by “and” are separate entries in the source; they are usually repeats but may differ in a detail not shown here. Equal entries are not always repeated. “Also recorded” adds a separate entry of the source. Where two headings read alike, the source gives them in different places. Blank lines part the entries; values can stand above or below the compound they belong to.

Columns and labels:
[1] = molecular target: T1, APC/C activation by Cdc20 (Homo sapiens, UniProt Q12834); experiment: Western blot of Cyclin B1 levels (inhibition of APC/C activation by Cdc20); format: cell-based; conditions: HCC-38 cells, FIG. 9
T1 construct: endogenous in cells; the method paragraph speaks of HeLa cells
Method: FIG. 9. […] Consequently, non-ubiquitylated Cyclin B escapes degradation by the proteasome. […] HCC-38 cells at a density of 200,000 cells per well were used in this study.
The entirety of the following procedure was carried out under aseptic conditions. HeLa cells were counted and seeded into clear bottom 6-well plates (Greiner Bio-One) at a density of 200,000 cells/well in a volume of 2 ml and placed in an incubator (37° C., 5% CO2) overnight. The following day medium was aspired and 1.5 ml of treatment was added to wells. Cells were treated with controls (medium alone) and compounds. All stock solutions of the small compounds were prepared by resuspension of the solid in DSMO, then diluted in medium to the final concentrations being tested. The effect of these compounds on mitosis was analysed by measuring Cyclin B1 levels, a downstream target of APC/C-Cdc20. Cells were incubated and had 24 hours treatment exposure. Plates were then placed on ice and solution from each well was aspired. […]

[2] = test system: HCC-38 triple negative breast cancer cells; experiment: Clonogenic assay of HCC-38 cells; format: cell-based; conditions: HCC-38, 24 hours treatment, stained after 12 days, FIG. 7
Method: FIG. 7. Clonogenic assay of HCC-38 cells treated with DMSO (1.2% v/v), the Mps1 kinase inhibitor Reversine, the Cdc20 binder Apcin and compound o-TFB-Tyr. The clones were stained after 12 days incubation at 37 Celsius. Following treatment of the HCC38 cells with the compounds for 24 hours, the medium was exchanged every 48 hrs.
The entirety of the following procedure was carried out under aseptic conditions. HeLa cells were counted and seeded into clear bottom 6-well plates (Greiner Bio-One) at density 500 cells/well (250 cells/ml). 2 ml of cells were added to each well and placed in the incubator (37° C., 5% CO2) overnight. The following day medium was aspired and 1.5 ml of treatment was added to wells. Cells were treated with control (medium alone) and compounds. All stock solutions of compounds were prepared by resuspension of the solid in DMSO, then diluted in medium to the final concentrations being tested. HeLa cells viability was measured using clonogenic assay, a cell survival-based assay that determines cell reproductive death after treatment with cytotoxic agents. Cells were incubated and had 72 hours treatment exposure. […]
Each well of the clonogenic assay was then scanned using an Axiozoom Zeiss Axioplan fluorescence microscope equipped for DIC imaging and fluorescence imaging and analysed using the ImageJ2 image-processing software (Fiji). […]

[3] = Kinetic solubility, turbidimetric method; format: physicochemical
Method: Kinetic solubility. This is a valuable initial screen that was carried out prior to starting ADME test in order to identify potential issues and to determine appropriate concentration ranges. Kinetic solubility was measured using a turbidimetric method.

[4] = Intestinal permeability assay in Caco-2 cells; format: in vitro ADME, human; conditions: human
Method: (§1) This was determined using an intestinal permeability assay in Caco-2 cells, a human colorectal adenocarcinoma cell line (see FIG. 4).

Caco-2 cells = experiment: Intestinal permeability assay in Caco-2 cells; format: in vitro ADME, human
Method: as §1

[5] = Metabolic stability test (liver microsomes); format: in vitro ADME, Human
Description: The liver is the major drug metabolising organ for the large majority of pharmaceutical drugs. A good in vitro model to investigate drug metabolism is based on the use of microsomes, a subcellular fraction of the liver.

CYP3A4 = CYP3A4 (Homo sapiens, UniProt P08684); experiment: Cytochrome P450 inhibition IC50 determination (isoform CYP3A4); format: in vitro ADME; conditions: for inhibition at 0.1 µM / inhibition at 0.25 µM / inhibition at 1 µM / inhibition at 2.5 µM / inhibition at 10 µM / inhibition at 25 µM: human; for inhibition at 0.1 µM: CYP3A4, 0.1 μM; for inhibition at 0.25 µM: CYP3A4, 0.25 μM; for inhibition at 1 µM: CYP3A4, 1 μM; for inhibition at 2.5 µM: CYP3A4, 2.5 μM; for inhibition at 10 µM: CYP3A4, 10 μM; for inhibition at 25 µM: CYP3A4, 25 μM
Description: Two thirds of drugs cleared by metabolism are metabolised at least in part by the cytochrome P450 (CYP) enzymes with the isoform CYP3A4 accounting for almost 50% of all CYP activity. For this reason, we tested whether CYP3A4 is implicated in the clearance of o-TFB-Tyr. […]

[6] = Plasma protein binding assay (human); format: in vitro ADME; conditions: plasma spiked 1 side; for fraction unbound: plasma
Description: (§2) Non-specific plasma protein binding can greatly affect the extent of free drug concentration which may influence the lead compound's subsequent inhibitory potential (see table 6 below).

plasma protein [7] = experiment: Plasma protein binding assay (human); format: in vitro ADME
Description: as §2

[8] = Plasma protein binding assay (mouse); format: in vitro ADME; conditions: plasma spiked 1 side; for fraction unbound: plasma
Description: as §2

plasma protein [9] = experiment: Plasma protein binding assay (mouse); format: in vitro ADME
Description: as §2

HeLa cells = experiment: MTT cytotoxicity assay in HeLa cells; format: cell-based
Method: The entirety of the following protocol was carried out under aseptic conditions. HeLa cells were cultured in Dulbecco's Modified Eagle's Medium (DMEM) supplemented with 10% Fetal Bovine Serum (FBS) (Sigma F7524). Cells were counted and seeded into clear bottom 96-well plates (Greiner Bio-One) at density 6,000 cells/well. 100 μl of cells were added to each well and placed in the incubator overnight. The following day medium was aspired and 100 μL of treatment was added to wells. Cells were treated with controls (medium alone, Reversine 5 μM, Apcin 25 μM). […]
In vitro cytotoxic analysis involved quantitative measurements of cell proliferation and the subsequent assessment of the relative toxicity of the compounds. (3-(4,5-Dimethylthiazol-2-yl)-2,5-Diphenyltertrazolium Bromide (MTT) is a widely utilised cytotoxic assay that measures cellular metabolic activity as an indicator for cell viability, proliferation and cytotoxicity from the reduction of water soluble yellow tetrazole MTT to insoluble purple formazan crystals by mitochondrial dehydrogenases. The insoluble purple crystalline product was dissolved in DMSO and the resulting coloured solution quantified by measuring the absorbance (570 nm). Reduction can only occur when mitochondrial reductive enzymes are active, thus a direct correlation to the number of viable cells. […]

[10] = kinetic solubility, turbidimetric
[11] = probe testosterone, read-out: % inhibition with substrate testosterone
[12] = read-out: % inhibition with substrate midazolam
[13] = read-out: Fraction unbound Replicate 1
[14] = read-out: Fraction unbound Replicate 2
[15] = read-out: Fraction unbound Replicate 3
[16] = read-out: Mean fraction unbound

T1 sequence (Q12834 whole entry): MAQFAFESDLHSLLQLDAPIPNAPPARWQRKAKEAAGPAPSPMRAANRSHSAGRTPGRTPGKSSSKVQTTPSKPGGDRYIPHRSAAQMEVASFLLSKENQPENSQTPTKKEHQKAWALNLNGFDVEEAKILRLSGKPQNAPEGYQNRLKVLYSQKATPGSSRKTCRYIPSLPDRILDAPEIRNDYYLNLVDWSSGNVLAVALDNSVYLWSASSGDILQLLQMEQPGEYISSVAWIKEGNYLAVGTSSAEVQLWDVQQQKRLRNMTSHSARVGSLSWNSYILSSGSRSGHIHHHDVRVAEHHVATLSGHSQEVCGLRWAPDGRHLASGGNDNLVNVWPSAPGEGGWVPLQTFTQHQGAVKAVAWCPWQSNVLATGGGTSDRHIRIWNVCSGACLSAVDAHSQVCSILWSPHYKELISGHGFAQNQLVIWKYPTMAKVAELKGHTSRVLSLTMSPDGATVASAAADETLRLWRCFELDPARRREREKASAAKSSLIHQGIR
Chain of CYP3A4 (P08684 whole entry, canonical isoform): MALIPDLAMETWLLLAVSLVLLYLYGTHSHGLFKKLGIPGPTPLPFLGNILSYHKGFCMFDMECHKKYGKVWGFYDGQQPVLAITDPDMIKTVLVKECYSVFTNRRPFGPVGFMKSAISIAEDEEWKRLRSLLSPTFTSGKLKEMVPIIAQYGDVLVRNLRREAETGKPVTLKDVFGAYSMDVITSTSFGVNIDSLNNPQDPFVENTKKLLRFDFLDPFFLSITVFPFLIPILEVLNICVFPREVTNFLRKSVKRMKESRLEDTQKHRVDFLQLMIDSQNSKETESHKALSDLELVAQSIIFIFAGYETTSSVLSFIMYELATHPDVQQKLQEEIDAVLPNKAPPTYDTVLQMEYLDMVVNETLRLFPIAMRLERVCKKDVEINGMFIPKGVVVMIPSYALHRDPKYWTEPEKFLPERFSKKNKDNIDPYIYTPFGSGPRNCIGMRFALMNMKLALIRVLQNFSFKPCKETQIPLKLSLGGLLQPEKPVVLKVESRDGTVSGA

SMILES: Cc1ncc([N+](=O)[O-])n1CCOC(=O)NC(Nc1ncccn1)C(Cl)(Cl)Cl (stereo not shown) [Apcin, reference compound]
Inhibition of Cyclin B ubiquitylation by APC/C / APC/C activation by Cdc20 [1]: comparatively less effective than compound o-TFB-Tyr

SMILES: c1nc2nc(Nc3ccc(N4CCOCC4)cc3)nc(NC3CCCCC3)c2[nH]1 [Reversine, reference compound]
Number of clones [2]: lower number of triple negative breast cancer cell clones

Solubility in aqueous solutions [3]: readily soluble in aqueous solutions | Estimated Precipitation Range, Calculated mid-range [3, 10]: >100 µM | Estimated Precipitation Range, Lower bound [3, 10]: 100 µM | Estimated Precipitation Range, Upper bound [3, 10]: >100 µM | recovery ([4]; Caco-2, Caco2, A to B, read-out: Direction A to B Mean % recovery): 62.8% | recovery ([4]; Caco-2, Caco2, B to A, read-out: Direction B to A Mean % recovery): 88.9% | efflux ratio ([4]; Caco-2, Caco2, read-out: Efflux ratio (Mean Papp B to A/Mean Papp A to B)): 0.862 | Active transport by membrane proteins such as ABC transporters (Caco-2 cells; Caco2): not actively transported | Direction A to B Mean Papp (Caco-2 cells; Caco2, A to B): 22.1 ×10⁻⁶ cm/s | Direction B to A Mean Papp (Caco-2 cells; Caco2, B to A): 19.1 ×10⁻⁶ cm/s | Metabolic stability ([5]; Human microsomes): stable | Compound remaining (% of 0 min) ([5]; Human, 0 min): 100 % of 0 min | Compound remaining (% of 0 min) ([5]; Human, 5 min): 107 % of 0 min | Compound remaining (% of 0 min) ([5]; Human, 15 min): 43.7 % of 0 min | Compound remaining (% of 0 min) ([5]; Human, 30 min): 19.3 % of 0 min | Compound remaining (% of 0 min) ([5]; Human, 45 min): 8 % of 0 min and 8.23 % of 0 min | Compound remaining (% of 0 min), Control ([5]; Human, Control incubation): 89.8 % of 0 min | inhibition at 0.1 µM (CYP3A4; [11]): -0.99% | inhibition at 0.25 µM (CYP3A4; [11]): 0.136% | inhibition at 1 µM (CYP3A4; [11]): 4.21% | inhibition at 2.5 µM (CYP3A4; [11]): 49% | inhibition at 10 µM (CYP3A4; [11]): 77.3% | inhibition at 25 µM (CYP3A4; [11]): 89.5% | inhibition at 0.1 µM (CYP3A4; [12]): 13.7% | inhibition at 0.25 µM (CYP3A4; [12]): 22.5% | inhibition at 1 µM (CYP3A4; [12]): 47.5% | inhibition at 2.5 µM (CYP3A4; [12]): 65.6% | inhibition at 10 µM (CYP3A4; [12]): 84.4% | inhibition at 25 µM (CYP3A4; [12]): 91.1% | recovery [6]: 101% | fraction unbound [6, 13]: 0.352 | fraction unbound [6, 14]: 0.328 | fraction unbound [6, 15]: 0.304 | fraction unbound [6, 16]: 0.328 | recovery [8]: 102% | fraction unbound [8, 13]: 0.28 | fraction unbound [8, 14]: 0.28 | fraction unbound [8, 15]: 0.301 | fraction unbound [8, 16]: 0.287
SMILES: N[C@@H](Cc1ccc(O)cc1)C(=O)NCc1ccccc1C(F)(F)F [o-TFB-Tyr, (2S)-2-amino-N-[2-(trifluoromethyl)benzyl]-3-[4-(hydroxy)phenyl]propanamide]
Diffusion across the membrane (Caco-2 cells; Caco2): diffuses freely across the semipermeable membrane in both directions | IC50 compared with control compounds (CYP3A4; CYP3A4, midazolam and testosterone as substrates): much higher than that of controls compounds | Non-specific plasma protein binding (plasma protein [7]): absence of non-specific plasma protein binding | Non-specific plasma protein binding (plasma protein [9]): absence of non-specific plasma protein binding | Relative cytotoxicity compared with other compounds (HeLa cells; MTT, FIGS. 5 and 6): higher cytotoxic effect | Cytotoxic activity, concentration range (HeLa cells; cytotoxicity and clonogenic studies): 200 to 10 μM | Number of clones [2]: lower number of triple negative breast cancer cell clones | Inhibition of Cyclin B ubiquitylation by APC/C / APC/C activation by Cdc20 [1]: confirmed the inhibitory effect of this compound on APC/C activation by Cdc20; also recorded: confirmed the inhibition of APC/C activation by Cdc20; also recorded: causes inhibition of Cyclin B ubiquitylation by APC/C
